Experimental data: US11459327B1, “Cycloalkyl and hetero-cycloalkyl inhibitors, preparation methods therefor, and use thereof” (Suzhou Zelgen Biopharmaceuticals Co., Ltd., priority 2019, dated 2022)

system: NCI-H358(KRAS^G12C mutation) cells; assay: Cell assay of antiproliferative activity (Celltiter-Glo, 5 days) against NCI-H358 cells; assay type: cell-based; conditions: 5 days incubation
Description: Cell assay of antiproliferative activity of compounds against NCI-H358(KRAS^G12C mutation) and A549(KRAS^G12S mutation) cells.
40 μl phosphate buffer was added to the outer wells of the 384 microplate, and 40 μl cell suspension to be tested was added to the other wells. Then the microplate was incubated in a carbon dioxide incubator overnight.
The compounds to be tested were gradiently diluted, each compound was performed 10 concentration gradients (diluted from 50 μM to 0.003 μM) and added 100 nL to the corresponding wells in the microplate. After addition, 40 μl of phosphate buffer was added to each well in rows A and P and columns 1 and 24, and then the microplate was incubated in a carbon dioxide incubator for 5 days.
20 μL of Promega Celltiter-Glo reagent was added to each well of the microplate, and then the luminescence signal was stabilized by oscillating at room temperature for 10 min. Then PekinElmer Envision multi-label analyzer was used to read.
Finally, GraphPad Prism software was used to calculate the IC50 value of the compound and the fitting curve was drawn.
Anti-proliferative activity of the compounds of the present invention against NCI-H358(KRAS^G12C mutation) and A549(KRAS^G12S mutation) cells were shown in Table 1.

Compound	IC50 [nM]
C=C(F)C(=O)N1CCN(c2nc(OCC3(C(C)N(C)C)CC3)nc3c2CCN(c2cccc4cccc(Cl)c24)C3)C[C@@H]1CC#N (stereo partly drawn) [Example 47A, 2-((2S)-4-(7-(8-chloronaphthalen-1-yl)-2-((1-(1-(dimethylamino)ethyl)cyclopropyl)methoxy)-5,6,7,8-tetrahydropyrido[3,4-d]pyrimidin-4-yl)-1-(2-fluoroacroloyl)piperazin-2-yl) acetonitrile]	100
C=C(F)C(=O)N1CCN(c2nc(OCC3(C(C)N(C)C)CC3)nc3c2CCN(c2cccc4cccc(Cl)c24)C3)C[C@@H]1CC#N (stereo partly drawn) [Example 47B, 2-((2S)-4-(7-(8-chloronaphthalen-1-yl)-2-((1-(1-(dimethylamino)ethyl)cyclopropyl)methoxy)-5,6,7,8-tetrahydropyrido[3,4-d]pyrimidin-4-yl)-1-(2-fluoroacroloyl)piperazin-2-yl) acetonitrile]	71
C=C(F)C(=O)N1CCN(c2nc(OCC3(C(C)N(C)C)CC3)nc3c2CCN(c2cccc4cccc(Cl)c24)C3)C[C@@H]1CC#N (stereo partly drawn) [Example 53A, 2-((2S)-4-(7-(8-chloronaphthalen-1-yl)-2-(1-(1-((dimethylamino)ethyl)cyclopropyl)methoxy)-5,6,7,8-tetrahydropyrido[3,4-d]pyrimidin-4-yl)-1-(2-fluoroacroloyl)piperazin-2-yl) acetonitrile]	1400
C=C(F)C(=O)N1CCN(c2nc(OCC3(C(C)N(C)C)CC3)nc3c2CCN(c2cccc4cccc(Cl)c24)C3)C[C@@H]1CC#N (stereo partly drawn) [Example 53B, 2-((2S)-4-(7-(8-chloronaphthalen-1-yl)-2-(1-(1-((dimethylamino)ethyl)cyclopropyl)methoxy)-5,6,7,8-tetrahydropyrido[3,4-d]pyrimidin-4-yl)-1-(2-fluoroacroloyl)piperazin-2-yl) acetonitrile]	1300

same assay, conditions: Homo sapiens, NCI-H358, 120 h, 5 days incubation

Compound	IC50 [nM]
C=CC(=O)N1CCN(c2nc(OCC3(CN(C)C4CC4)COC3)nc3c2CCN(c2cccc4cccc(Cl)c24)C3)CC1CC#N (stereo not shown) [Example 32, 2-(1-acroloyl-4-(7-(8-chloronaphthalen-1-yl)-2-((3-((cyclopropyl(methyl)amino)methyl)oxetan-3-yl)methoxyl)-5,6,7,8-tetrahydropyrido[3,4-d]pyrimidin-4-yl)piperazin-2-yl) acetonitrile]	120
C=C(F)C(=O)N1CCN(c2nc(OCCN(C)C3(C)CCC3)nc3c2CCN(c2cccc4ccc(F)c(Cl)c24)C3)CC1CC#N (stereo not shown) [Example 33, 2-(4-(7-(8-chloro-7-fluoronaphthalen-1-yl)-2-(2-(methyl(1-methylcyclobutyl)amino)ethoxy)-5,6,7,8-tetrahydropyrido[3,4-d]pyrimidin-4-yl)-1-(2-fluoroacroloyl)piperazin-2-yl) acetonitrile]	66
C=CC(=O)N1C[C@@H](C)N(c2nc(OCC3(CN(C)C)CC3)nc3c2CCN(c2cccc4cccc(Cl)c24)C3)C[C@@H]1C [Example 34, 1-((2S,5R)-4-(7-(8-chloronaphthalen-1-yl)-2-((1-((dimethylamino)methyl)cyclopropyl)methoxyl)-5,6,7,8-tetrahydropyrido[3,4-d]pyrimidin-4-yl)-2,5-dimethylpiperazin-1-yl)prop-2-ene-1-one]	1900
C=C(F)C(=O)N1CCN(c2nc(OCC3(CN(C)C)CC3)nc3c2CCN(c2c(C)ccc4[nH]ncc24)C3)C[C@@H]1CC#N [Example 35]	310
[2H]C([2H])([2H])N(CC1(COc2nc3c(c(N4CCN(C(=O)C(=C)F)[C@@H](CC#N)C4)n2)CCN(c2c(C)ccc4[nH]ncc24)C3)CC1)C([2H])([2H])[2H] [Example 36]	250
C=CC(=O)N1[C@@H]2CC[C@H]1CN(c1nc(OCC3(CN(C)C)CC3)nc3c1CCN(c1cccc4cccc(Cl)c14)C3)C2 [Example 37, 1-((1R,5S)-3-(7-(8-chloronaphthalen-1-yl)-2-((1-((dimethylamino)methyl)cyclopropyl)methoxyl)-5,6,7,8-tetrahydropyrido[3,4-d]pyrimidin-4-yl)-3,8-diazabicyclo[3.2.1]octane-8-yl)prop-2-ene-1-one]	1400
C=CC(=O)N1CC2CN(c3nc(OCC4(CN(C)C)CC4)nc4c3CCN(c3cccc5cccc(Cl)c35)C4)CC2C1 (stereo not shown) [Example 38, 1-(5-(7-(8-chloronaphthalen-1-yl)-2-((1-((dimethylamino)methyl)cyclopropyl)methoxyl)-5,6,7,8-tetrahydropyrido[3,4-d]pyrimidin-4-yl)hexahydropyrrolo[3,4-c]pyrrole-2(1H)-yl)prop-2-ene-1-one]	4900
C=CC(=O)N1CCN(c2nc(OCC3(CN(C)C)CC3)nc3c2CCN(c2cccc4cccc(Cl)c24)C3)CC12CC2 [Example 39, 1-(7-(7-(8-chloronaphthalen-1-yl)-2-((1-((dimethylamino)methyl)cyclopropyl)methoxyl)-5,6,7,8-tetrahydropyrido[3,4-d]pyrimidin-4-yl)-4,7-diazaspiro[2.5]octane-4-yl)prop-2-ene-1-one]	2500
C=CC(=O)N1CC2(C1)CN(c1nc(OCC3(CN(C)C)CC3)nc3c1CCN(c1cccc4cccc(Cl)c14)C3)C2 [Example 40, 1-(6-(7-(8-chloronaphthalen-1-yl)-2-((1-((dimethylamino)methyl)cyclopropyl)methoxyl)-5,6,7,8-tetrahydropyrido[3,4-d]pyrimidin-4-yl)-2,6-diazaspiro[3.3]heptane-2-yl)prop-2-ene-1-one]	300
C=CC(=O)N1CCN(c2nc(OCC3(CN(C)C)CC3)nc3c2CCN(c2cccc4cccc(Cl)c24)C3)CC1C(F)(F)F (stereo not shown) [Example 41, 1-(-4-(7-(8-chloronaphthalen-1-yl)-2-((1-((dimethylamino)methyl)cyclopropyl)methoxyl)-5,6,7,8-tetrahydropyrido[3,4-d]pyrimidin-4-yl)-2-(trifluoromethyl)piperazin-1-yl)prop-2-ene-1-one]	1400
C=CC(=O)N1CC2CC1CN2c1nc(OCC2(CN(C)C)CC2)nc2c1CCN(c1cccc3cccc(Cl)c13)C2 (stereo not shown) [Example 42, 1-(5-(7-(8-chloronaphthalen-1-yl)-2-((1-((dimethylamino)methyl)cyclopropyl)methoxyl)-5,6,7,8-tetrahydropyrido[3,4-d]pyrimidin-4-yl)-2,5-diazabicyclo[2.2.1]heptane-2-yl)prop-2-ene-1-one]	5500
C=CC(=O)N1CC2CCC1CN2c1nc(OCC2(CN(C)C)CC2)nc2c1CCN(c1cccc3cccc(Cl)c13)C2 (stereo not shown) [Example 43, 1-(5-(7-(8-chloronaphthalen-1-yl)-2-((1-((dimethylamino)methyl)cyclopropyl)methoxyl)-5,6,7,8-tetrahydropyrido[3,4-d]pyrimidin-4-yl)-2,5-diazabicyclo[2.2.2]octane-2-yl)prop-2-ene-1-one]	830
C=CC(=O)N1CC2(CCN(c3nc(OCC4(CN(C)C)CC4)nc4c3CCN(c3cccc5cccc(Cl)c35)C4)C2)C1 [Example 44, 1-(6-(7-(8-chloronaphthalen-1-yl)-2-((1-((dimethylamino)methyl)cyclopropyl)methoxyl)-5,6,7,8-tetrahydropyrido[3,4-d]pyrimidin-4-yl)-2,6-diazaspiro[3.4]octane-2-yl)prop-2-ene-1-one]	3300
[2H]C([2H])([2H])N(CC1(COc2nc3c(c(N4CCN(C(=O)C(=C)F)[C@@H](CC#N)C4)n2)CCN(c2cccc4cccc(Cl)c24)C3)CC1)C([2H])([2H])[2H] [Example 45]	49
C=C(F)C(=O)N1CCN(c2nc(OCC3(COC)CN(C)C3)nc3c2CCN(c2cccc4cccc(Cl)c24)C3)C[C@@H]1CC#N [Example 46]	37
C=C(F)C(=O)N1CCN(c2nc(OCC3(CN4CCC4)CC3)nc3c2CCN(c2cccc4cccc(Cl)c24)C3)C[C@@H]1CC#N [Example 48]	65
CC#CC(=O)N1CCN(c2nc(OCC3(CN(C)C)CC3)nc3c2CCN(c2cccc4cccc(Cl)c24)C3)C[C@@H]1CC#N [Example 49, (S)-2-(1-(but-2-ynoyl)-4-(7-(8-chloronaphthalen-1-yl)-2-((1-((dimethylamino)methyl)cyclopropyl)methoxyl)-5,6,7,8-tetrahydropyrido[3,4-d]pyrimidin-4-yl)piperazin-2-yl) acetonitrile]	43
C=CC(=O)N1CCN(c2nc(OCC3(CN(C)C)CC3)nc3c2CCN(c2cccc4cccc(Cl)c24)C3)[C@@H](C)C1 [Example 50, (S)-1-(-4-(7-(8-chloronaphthalen-1-yl)-2-((1-((dimethylamino)methyl)cyclopropyl)methoxyl)-5,6,7,8-tetrahydropyrido[3,4-d]pyrimidin-4-yl)-3-methylpiperazin-1-yl)prop-2-ene-1-one]	300
C=C(F)C(=O)N1CCN(c2nc(OCC3(CCN(C)C)CC3)nc3c2CCN(c2cccc4cccc(Cl)c24)C3)C[C@@H]1CC#N [Example 52, (S)-2-(4-(7-(8-chloronaphthalen-1-yl)-2-((1-(2-(dimethylamino)ethyl)cyclopropyl)methoxy)-5,6,7,8-tetrahydropyrido[3,4-d]pyrimidin-4-yl)-1-(2-fluoroacroloyl)piperazin-2-yl) acetonitrile]	540
C=C(F)C(=O)N1CCN(c2nc(OCC3(CN(C)CC)CC3)nc3c2CCN(c2cccc4cccc(Cl)c24)C3)C[C@@H]1CC#N [Example 54, (S)-2-(4-(7-(8-chloronaphthalen-1-yl)-2-((1-((ethyl (methyl)amino)methyl)cyclopropyl)methoxy)-5,6,7,8-tetrahydropyrido[3,4-d]pyrimidin-4-yl)-1-(2-fluoroacroloyl)piperazin-2-yl) acetonitrile]	47
C=C(F)C(=O)N1CCN(c2nc(OCCN(C)C34CC(C3)C4)nc3c2CCN(c2cccc4cccc(Cl)c24)C3)C[C@@H]1CC#N [Example 55]	870
